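Where inhibition never reached the appropriate level, the endpoint shown equals the highest concentration tested. Otherwise, values were interpolated linearly from a five-concentration, 48-hour dose response in 96-well plates. At the GI50, growth is halved.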 Active and inactive are the calls of the source. No stated cut-off is given here; in the data, active = GI50 up to about 1.1 µM and inactive = higher.
Columns and labels:
Test in all cases: inhibition of tumour cell growth, NCI panel, 48 h
T47D = system: T47D
IGROV-1 = system: IGROV-1
786-0 = system: 786-0
SNB-75 = system: SNB-75
RPMI-8226 = system: RPMI-8226
SF-295 = system: SF-295
SK-MEL-2 = system: SK-MEL-2
NCI-H23 = system: NCI-H23
OVCAR-5 = system: OVCAR-5
SR = system: SR
MCF7 = system: MCF7
A549 = system: A549
TK-10 = system: TK-10
SK-OV-3 = system: SK-OV-3
LOX IMVI = system: LOX IMVI
DU-145 = system: DU-145
HOP-62 = system: HOP-62
Hs-578T = system: Hs-578T
HCT-15 = system: HCT-15
CCRF-CEM = system: CCRF-CEM
KM12 = system: KM12
HCT-116 = system: HCT-116
SF-268 = system: SF-268
PC-3 = system: PC-3
OVCAR-3 = system: OVCAR-3
NCI-H460 = system: NCI-H460
COLO 205 = system: COLO 205
ACHN = system: ACHN
SK-MEL-5 = system: SK-MEL-5
HT-29 = system: HT-29
U-251 = system: U-251
K562 = system: K562
BT-549 = system: BT-549
M14 = system: M14
RXF 393 = system: RXF 393
UACC-257 = system: UACC-257
NCI/ADR-RES = system: NCI/ADR-RES
CAKI-1 = system: CAKI-1
MOLT-4 = system: MOLT-4
UO-31 = system: UO-31
UACC-62 = system: UACC-62
MDA-N = system: MDA-N
OVCAR-4 = system: OVCAR-4
SF-539 = system: SF-539
HOP-92 = system: HOP-92
MDA-MB-435 = system: MDA-MB-435
HCC 2998 = system: HCC 2998
HL-60 = system: HL-60
SK-MEL-28 = system: SK-MEL-28
MDA-MB-231 = system: MDA-MB-231
SN12C = system: SN12C
SNB-19 = system: SNB-19
SW-620 = system: SW-620
Malme-3M = system: Malme-3M
OVCAR-8 = system: OVCAR-8
NCI-H522 = system: NCI-H522
EKVX = system: EKVX
NCI-H226 = system: NCI-H226

Structure (SMILES): CCOC(=O)c1c(-c2ccc(Cl)cc2)c(C#N)c(=S)n(C2OC(COC(C)=O)C(OC(C)=O)C(OC(C)=O)C2OC(C)=O)c1-c1ccccc1 (stereo not given)
- GI50 (T47D): > 100 µM (inactive)
- GI50 (IGROV-1): > 100 µM (inactive)
- GI50 (786-0): > 100 µM (inactive)
- GI50 (SNB-75): 21.6 µM (inactive)
- GI50 (RPMI-8226): > 100 µM (inactive)
- GI50 (SF-295): > 100 µM (inactive)
- GI50 (SK-MEL-2): > 100 µM (inactive)
- GI50 (NCI-H23): > 100 µM (inactive)
- GI50 (OVCAR-5): > 100 µM (inactive)
- GI50 (SR): > 100 µM (inactive)
- GI50 (MCF7): > 100 µM (inactive)
- GI50 (A549): > 100 µM (inactive)
- GI50 (TK-10): > 100 µM (inactive)
- GI50 (SK-OV-3): > 100 µM (inactive)
- GI50 (LOX IMVI): > 100 µM (inactive)
- GI50 (DU-145): > 100 µM (inactive)
- GI50 (HOP-62): > 100 µM (inactive)
- GI50 (Hs-578T): > 100 µM (inactive)
- GI50 (HCT-15): > 100 µM
- GI50 (CCRF-CEM): > 100 µM (inactive)
- GI50 (KM12): > 100 µM (inactive)
- GI50 (HCT-116): > 100 µM (inactive)
- GI50 (SF-268): > 100 µM (inactive)
- GI50 (PC-3): > 100 µM (inactive)
- GI50 (OVCAR-3): > 100 µM (inactive)
- GI50 (NCI-H460): > 100 µM (inactive)
- GI50 (COLO 205): > 100 µM (inactive)
- GI50 (ACHN): > 100 µM (inactive)
- GI50 (SK-MEL-5): 28 µM (inactive)
- GI50 (HT-29): > 100 µM (inactive)
- GI50 (U-251): > 100 µM (inactive)
- GI50 (K562): > 100 µM (inactive)
- GI50 (BT-549): > 100 µM (inactive)
- GI50 (M14): 57.5 µM (inactive)
- GI50 (RXF 393): > 100 µM (inactive)
- GI50 (UACC-257): > 100 µM (inactive)
- GI50 (NCI/ADR-RES): > 100 µM (inactive)
- GI50 (CAKI-1): > 100 µM (inactive)
- GI50 (MOLT-4): > 100 µM (inactive)
- GI50 (UO-31): > 100 µM (inactive)
- GI50 (UACC-62): > 100 µM (inactive)
- GI50 (MDA-N): > 100 µM (inactive)
- GI50 (OVCAR-4): > 100 µM (inactive)
- GI50 (SF-539): > 100 µM (inactive)
- GI50 (HOP-92): 12.7 µM (inactive)
- GI50 (MDA-MB-435): > 100 µM (inactive)
- GI50 (HCC 2998): > 100 µM (inactive)
- GI50 (HL-60): > 100 µM (inactive)
- GI50 (SK-MEL-28): > 100 µM (inactive)
- GI50 (MDA-MB-231): > 100 µM (inactive)
- GI50 (SN12C): > 100 µM (inactive)
- GI50 (SNB-19): > 100 µM (inactive)
- GI50 (SW-620): > 100 µM (inactive)
- GI50 (Malme-3M): > 100 µM (inactive)

Structure (SMILES): CCC(=O)N1NC(=O)C(CC)(CC)C1=O
- GI50 (T47D): > 100 µM (inactive)
- GI50 (IGROV-1): > 100 µM (inactive)
- GI50 (786-0): > 100 µM (inactive)
- GI50 (SNB-75): 36.8 µM (inactive)
- GI50 (OVCAR-8): > 100 µM (inactive)
- GI50 (RPMI-8226): > 100 µM (inactive)
- GI50 (SF-295): > 100 µM (inactive)
- GI50 (SK-MEL-2): > 100 µM (inactive)
- GI50 (NCI-H23): > 100 µM (inactive)
- GI50 (OVCAR-5): > 100 µM (inactive)
- GI50 (SR): > 100 µM (inactive)
- GI50 (MCF7): > 100 µM (inactive)
- GI50 (A549): > 100 µM (inactive)
- GI50 (TK-10): > 100 µM (inactive)
- GI50 (SK-OV-3): > 100 µM (inactive)
- GI50 (LOX IMVI): > 100 µM (inactive)
- GI50 (DU-145): > 100 µM (inactive)
- GI50 (HOP-62): > 100 µM (inactive)
- GI50 (Hs-578T): 83 µM (inactive)
- GI50 (HCT-15): > 100 µM
- GI50 (CCRF-CEM): > 100 µM (inactive)
- GI50 (KM12): > 100 µM (inactive)
- GI50 (HCT-116): > 100 µM (inactive)
- GI50 (SF-268): > 100 µM (inactive)
- GI50 (PC-3): > 100 µM (inactive)
- GI50 (OVCAR-3): > 100 µM (inactive)
- GI50 (NCI-H460): > 100 µM (inactive)
- GI50 (COLO 205): > 100 µM (inactive)
- GI50 (ACHN): > 100 µM (inactive)
- GI50 (SK-MEL-5): > 100 µM (inactive)
- GI50 (NCI-H522): > 100 µM (inactive)
- GI50 (HT-29): > 100 µM (inactive)
- GI50 (U-251): > 100 µM (inactive)
- GI50 (K562): > 100 µM (inactive)
- GI50 (EKVX): > 100 µM (inactive)
- GI50 (NCI-H226): > 100 µM (inactive)
- GI50 (BT-549): > 100 µM (inactive)
- GI50 (M14): > 100 µM (inactive)
- GI50 (RXF 393): > 100 µM (inactive)
- GI50 (UACC-257): > 100 µM (inactive)
- GI50 (NCI/ADR-RES): > 100 µM (inactive)
- GI50 (CAKI-1): > 100 µM (inactive)
- GI50 (MOLT-4): > 100 µM (inactive)
- GI50 (UO-31): > 100 µM (inactive)
- GI50 (UACC-62): > 100 µM (inactive)
- GI50 (MDA-N): > 100 µM (inactive)
- GI50 (OVCAR-4): > 100 µM (inactive)
- GI50 (MDA-MB-435): > 100 µM (inactive)
- GI50 (HCC 2998): > 100 µM (inactive)
- GI50 (HL-60): > 100 µM (inactive)
- GI50 (SK-MEL-28): > 100 µM (inactive)
- GI50 (MDA-MB-231): > 100 µM (inactive)
- GI50 (SN12C): > 100 µM (inactive)
- GI50 (SNB-19): > 100 µM (inactive)
- GI50 (SW-620): > 100 µM (inactive)
- GI50 (Malme-3M): 0.276 µM (active)
